The record followed here is paper PMC11558097, “Enhanced Tumor‐Targeted Delivery of Arginine‐Rich Peptides via a Positive Feedback Loop Orchestrated by Piezo1/integrin β1 Signaling Axis” (Advanced Science, 2024).

Ends that are not written are not given here.

For assay [1], the system named is T24 cells. Nature of the assay: Antibody block assay (integrin α2β1 antibody), R11 uptake by flow cytometry. Format: cell-based, human. Conditions: Anti-integrin α2β1 5 ug/mL for 2 h. How it is done: (§1) Antibody integrin α2β1 (ab30483) used for blocking the binding motif was purchased from ABCAM. Cells were planted in the 6‐well plates and treated with Anti‐integrin α2β1 (5 ug/mL). After incubation for 2 h, the cells were treated with R11 peptides and collected. Then, the cells were trypsinized, washed, and suspended in 1 mL PBS. The fluorescence intensity of 10 000 cells was measured using flow cytometer.

Assay [2] concerns 253J cells. Described as above. Type of assay: cell-based, human. Conditions: Anti-integrin α2β1 5 ug/mL for 2 h. How it is done:
as §1

Assay [3] has as its system Piezo1 in T24 cells. Nature of the assay: Flow cytometry of Ca2+ signal and R11 uptake with Piezo1 agonist or inhibitor. Type of assay: cell-based, human. Conditions: for effect on R11 uptake efficiency and Ca2+ release: T24 cells exposed to R11, Yoda1 10 nM, GsMTx4 2.5 nM. In general terms: A flow cytometer gives signals particle by particle.
Assay [4] relates to BC cell lines (5637, T24, and 253J). Nature of the assay: Flow cytometry and fluorescence microscopy, uptake of R11 in BC cell lines versus control cells. Format: cell-based, human. Conditions: BC cell lines versus Raw264.7 and SV-HUC control cells, R11 100 nM. As for the experimental part:
(§2) Flow cytometry was used to measure the fluorescence signal. Cells were seeded in a 6‐well plate at 1.0 × 10^5 cells per well and treated with R11 peptides and a series of inhibitors for 4 h, including NaN3 (active uptake inhibitor, 20 mM), methyl‐β‐cyclodextrin (MβCD: lipid raft‐mediated endocytosis inhibitor, 5 µg mL^−1), EIPA (macropinocytosis inhibitor, […]), Chlorpromazine (CPZ: clathrin‐mediated endocytosis, 5 µg mL^−1) or Dynasore (dynamin‐dependent endocytosis inhibitor, […]) in serum‐free media at 37 °C or 4 °C for 4 h, respectively. Then, the cells were trypsinized, washed, and suspended in 1 mL PBS. The fluorescence intensity of 10 000 cells was measured using a BD LSR II flow cytometer.

The subject of assay [5] is T24 cells. Nature of the assay: Cellular uptake pathways, flow cytometry with endocytosis inhibitors. Type of assay: cell-based, human. Conditions: serum-free media. As for the experimental part:
as §2

Assay [6] deals with bladder tumors. Nature of the assay: Mouse orthotopic BC model, IVIS imaging after intravesical instillation. Format: in vivo. Conditions: female nude mice, orthotopic integrin β1-GFP BC model. As for the experimental part:
All the animal experiments were carried out following guidelines approved by the ethics committee of Xi'an Jiaotong University, Xi'an, China. Female nude mice aged 4–6 weeks were randomly sorted. After gaseous anesthesia, an intravenous indwelling needle lubricated with paraffin cotton was inserted into the bladder and fixed well. Then, the urine was removed, and the bladder was rinsed with PBS 3 times. Next, the abdominal skin was disinfected by iodine tincture and cut open for approximately 1 cm. GFP‐integrin β1 cells (1 × 10^6/mL) were injected into the bladder wall with an insulin needle under direct visualization. Last, the abdominal wall was stitched and bound with gauze. After 7 days, the effect of bladder tumor implantation was observed. After intravesical perfusion of R11 peptides or gold nanoparticles, tumor‐bearing mice were detected using an in vivo imaging system/IVIS (AniView) to take images. In addition, frozen sections of the tumors were stained with DAPI, and the fluorescence of each section of the tumor was analyzed by fluorescence microscopy.

In assay [7] the target is T1, integrin β1 (standard of an integrin β1 ELISA kit) (UniProt P05556 21-728).
T1 construct: integrin β1 (ITGB1), standard protein of a commercial ELISA kit; also called ITGB1; integrin β1 standards; source: bought: standard of the integrin β1 ELISA kit, Shanghai Westang Bio-Tech CO., LTD
T1 sequence (P05556 21-728): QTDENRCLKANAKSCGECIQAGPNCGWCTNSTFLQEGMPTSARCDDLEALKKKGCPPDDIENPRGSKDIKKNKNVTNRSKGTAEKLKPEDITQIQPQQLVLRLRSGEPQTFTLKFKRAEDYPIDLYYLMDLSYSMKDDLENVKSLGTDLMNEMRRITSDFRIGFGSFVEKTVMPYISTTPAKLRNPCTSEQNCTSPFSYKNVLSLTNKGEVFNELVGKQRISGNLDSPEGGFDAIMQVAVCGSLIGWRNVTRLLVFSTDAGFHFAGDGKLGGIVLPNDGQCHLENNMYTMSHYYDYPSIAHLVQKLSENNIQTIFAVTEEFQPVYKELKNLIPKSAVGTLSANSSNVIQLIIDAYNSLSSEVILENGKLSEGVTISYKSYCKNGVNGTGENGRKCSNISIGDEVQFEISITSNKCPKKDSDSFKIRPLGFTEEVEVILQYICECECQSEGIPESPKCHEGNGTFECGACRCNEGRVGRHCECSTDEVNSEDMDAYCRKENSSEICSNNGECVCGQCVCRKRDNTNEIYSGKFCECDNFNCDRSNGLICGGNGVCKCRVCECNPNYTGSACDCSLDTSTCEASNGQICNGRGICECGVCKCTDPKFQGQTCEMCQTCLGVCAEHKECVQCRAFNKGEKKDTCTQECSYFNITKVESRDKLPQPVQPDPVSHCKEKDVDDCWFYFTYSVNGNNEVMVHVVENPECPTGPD
Nature of the assay: ELISA; integrin β1 standards (0.5 µg/mL) added to the microplate wells of an integrin β1 ELISA kit, in triplicate; R11-TRITC serially diluted in PBS (0.001-10 000 nM), 2 h at 37 °C; washed; fluorescence of the bound peptide read on a microplate reader. Conditions: both partners purified. On the technique in general: An ELISA detects its analyte on a solid surface through an enzyme-linked reagent.

For `N=C(N)NCCC[C@H](NC(=O)[C@H](CCCNC(=N)N)NC(=O)[C@H](CCCNC(=N)N)NC(=O)[C@H](CCCNC(=N)N)NC(=O)[C@H](CCCNC(=N)N)NC(=O)[C@H](CCCNC(=N)N)NC(=O)[C@H](CCCNC(=N)N)NC(=O)[C@H](CCCNC(=N)N)NC(=O)[C@H](CCCNC(=N)N)NC(=O)[C@H](CCCNC(=N)N)NC(=O)[C@H](CCCNC(=N)N)NC(=O)CN)C(=O)O` [R11, hendeca‐arginine peptide], the “uptake of R11 peptides after blocking integrin α2β1” value in assay [1] and in assay [2] was “completely inhibited” in each case. For the same molecule, the “Ca2+ signal” value in assay [3] (T24 cells, varying R11 concentrations) is recorded as “increased consistently with the concentration of R11 peptides”. Besides, the “fluorescence signal of R11 (uptake)” value in assay [4] was “stronger fluorescence signal in BC cell lines compared to control cells”. For the same molecule, in assay [5] (Dynasore 80 µmol mL^−1, 4 h), the “uptake of R11 with Dynasore” value was “inhibited uptake partly”. For the same molecule, the “uptake of R11 with EIPA” value in assay [5] (EIPA (macropinocytosis inhibitor) 10 µmol mL^−1, 4 h) is “suppressed nearly half”. In assay [5] (NaN3 20 mM or 4 °C, 4 h), the “uptake of R11 with NaN3 and 4 °C” value is “blocked”. In assay [6], the “identification of bladder tumors in vivo (IVIS)” value is listed as “successfully identified bladder tumors in vivo but not adjacent kidney tissues”.
As to `Clc1cccc(Cl)c1CSc1nnc(-c2cnccn2)s1` [Yoda1], the “effect on R11 uptake efficiency and Ca2+ release” value in assay [3] is “enhanced both the uptake efficiency and Ca^2+ release”.
Still for that read-out and setting: as for GsMTx4, the entry is “opposite effect”.

B1: hendeca-arginine peptide (R11), GRRRRRRRRRRR-TRITC (peptide)
peptide: GRRRRRRRRRRR-{TRITC}
notes: designed cell-penetrating peptide: glycine followed by 11 arginines; also called R11 peptides; arginine-rich peptides; source: synthetic peptide, synthesized and purified by GL Biochem Ltd (Shanghai, China)
On to B1, for which it took 5.97 nM to reach a half-maximal effect in assay [7] (EC50).
